Measured values published in ChEMBL document CHEMBL3639008, “Pyridopyrazines as highly selective ras-Raf-Mek-Erk signal transduction pathway inhibitors” (2014).

Molecular target: Mitogen-activated protein kinase 1 (Homo sapiens, UniProt P28482)
Experiment: Cell-Free Kinase Assays: The inhibitory effect of the compounds according to the invention was tested on various serine/threonine, tyrosine and lipid kinases in enzymatic assays. Recombinant human kinases such as, for example, Erk2, were used in this case, partly as full-length kinases, partly as shortened fragments, but at least consisting of the functional kinase domains. The commercial kinase proteins (Proqinase, Upstate) were used as recombinant fusion proteins with GST (glutathion-S-transferase) or His-Tag. Depending on the type of substrate, the various kinase reactions were quantified by means of suitable ALPHA beads (Perkin-Elmer). MAPK-ALPHAs (e.g. Erk2): the test substance, 0.625 ng Erk2 (#14-173, Upstate), 10 uM ATP and 15 nM biotinylated MBP (myelin basic protein) substrate were incubated on a 384-well Optiplate (Perkin-Elmer) in a volume of 15 ul for 1 h in 25 mM Tris, 10 mM MgCl2, 0.1% Tween-20, 100 uM NaVO4, 2 mM DTT at pH 7.5.

Chain of Mitogen-activated protein kinase 1 (P28482 whole entry, the tested form may be a part): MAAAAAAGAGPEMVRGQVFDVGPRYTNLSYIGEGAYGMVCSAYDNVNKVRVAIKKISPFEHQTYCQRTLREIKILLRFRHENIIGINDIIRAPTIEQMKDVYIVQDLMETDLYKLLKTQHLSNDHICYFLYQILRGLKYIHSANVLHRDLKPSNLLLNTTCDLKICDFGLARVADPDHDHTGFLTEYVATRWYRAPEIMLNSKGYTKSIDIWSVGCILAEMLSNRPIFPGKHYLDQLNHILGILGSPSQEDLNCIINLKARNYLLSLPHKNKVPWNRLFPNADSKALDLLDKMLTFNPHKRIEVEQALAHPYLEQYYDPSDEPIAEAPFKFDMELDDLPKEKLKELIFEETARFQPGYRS

- IC50: 2 nM
Compound: O=C(NCCCCc1ccccc1)Nc1ccc2ncc(-c3cnn(CC(F)F)c3)nc2n1
